The test system of assay [1] is human skin. As to the kind of experiment: Theophylline permeation through human skin in Franz diffusion cells with co-applied enhancer. It is filed as in vitro ADME. The conditions noted are these: 1% enhancer co-applied with 5% TH in 60% PG; for CDERMIS, theophylline concentration in dermis / CEPIDERMIS, theophylline concentration in epidermis: after 48 h permeation, mean ± SEM; for ER, enhancement ratio of theophylline flux (fold increase in flux over control): human skin in vitro. As to the method:
The prepared enhancers were applied at 1% in 60% aqueous propylene glycol (PG) to human skin in vitro; 60% PG was used as a negative control. PG was selected for its synergy with amphiphilic enhancers. Each model drug was co-applied with the enhancer at infinite dose.
(§1) Donor samples for reversibility and infrared studies contained 1% enhancer in 60% PG. All samples were thoroughly mixed, incubated at 32 °C for 24 h, and, if needed, carefully resuspended before applying on the skin. The effects of the studied enhancers on the solubility of model drugs were assessed as described previously.
(§2) The permeation-enhancing potencies of the prepared compounds were evaluated on human skin in Franz diffusion cells. Human skin was slowly thawed, cut into 2 × 2 cm pieces, fixed in Teflon holders with 1-cm^2 circular permeation areas, and mounted into Franz cells epidermal side up. The acceptor compartment (15.9 ± 0.1 ml) was filled with phosphate-buffered saline at pH 7.4 with 0.005% gentamicin (PBS) and stirred at 32 °C throughout the experiment. The skin integrity was checked by electrical impedance (any skin sample with the impedance < 10 kΩ was excluded). Then, 100 µl of a donor sample (infinite dose) was applied to the skin and covered with a glass slide. Acceptor phase samples (300 µl) were collected at predetermined time intervals for 48 h, to reach steady-state and were replaced by the same volume of fresh PBS. […] The drug concentrations were measured by HPLC (see supplementary data).
(§3) The flux of the model drug through the skin Jss (µg/cm^2/h) was calculated from the linear region of this plot. The enhancement ratio (ER) was calculated as the ratio of flux with and without an enhancer.
(§4) After the permeation experiment, the cells were dismounted, the skin was carefully washed with PBS, and the permeation area of the skin (1 cm^2) was punched off. After heating the skin fragments to 80 °C for 1 min, the epidermis (E) was peeled off the dermis (D), individually weighed and extracted by 1 and 2 ml, respectively, of an extraction solvent (identical to the mobile phase for the drug HPLC analysis, see supplementary data) for 24 h. The drug concentration was measured by HPLC (see supplementary data).

Assay [2] relates to 3T3 mouse fibroblasts. As to the kind of experiment: MTT cell viability assay, 3T3. The assay is classed as cell-based. Particulars: NIH3T3, 48-h incubation, mean ± SEM, read-out: IC50, 3T3 cells, MTT assay. An excerpt: (§5) Next, the in vitro toxicities of the most promising enhancers Pro3 and Pro4, along with the parent Pro2, on spontaneously immortalized human keratinocytes (HaCaT) and Swiss albino mouse embryonic fibroblasts (3T3) were studied (Fig. 3). […] The cellular toxicities were further probed using the 3-(4,5-dimethylthiazol-2-yl)-2,5-diphenyltetrazolium bromide (MTT) uptake assay, based on the transformation of yellow MTT into purple formazan by mitochondrial reductases of living cells. The MTT assay also yielded toxicity values in tens of µM with trends to higher toxicity with a longer acyl chain length (thus also higher lipophilicity) of enhancers (Fig. 3).
(§6) Cell viability was determined via 3-(4,5-dimethylthiazol-2-yl)-2,5-diphenyltetrazolium bromide (MTT) and neutral red (NR) uptake assays after 48-h incubation with the enhancers (see Supplementary data for details).
(§7) Both cell lines were cultivated in Dulbecco’s modified Eagle’s medium (DMEM, Lonza, Basel, Switzerland) supplemented with 10% heat-inactivated fetal bovine serum (Merck, Darmstadt, Germany), 10 mM HEPES buffer (Merck, Darmstadt, Germany), and 1% penicillin/streptomycin solution (Lonza, Basel, Switzerland) in 75-cm^2 tissue culture flasks (TPP, Trasadingen, Switzerland) at 37°C in a humidified atmosphere of 5% CO2. Subconfluent cells were sub-cultured every 3-4 days.
For toxicity studies, the stock-solutions of studied compounds were prepared in dimethyl sulfoxide (DMSO). […]
After 48-h incubation with the studied enhancer, cell viability was determined via 3-(4,5-dimethylthiazol-2-yl)-2,5-diphenyltetrazolium bromide (MTT) uptake assay based on the transformation of yellow MTT into purple formazan by mitochondrial reductase activity of living cells. […] Afterward, the cell viability was assessed by optical density measurement using a Tecan Infinite 200 M plate reader (Tecan, Grödig, Austria) at λ = 570 nm.
(§8) The viability of each experimental group was expressed as the percentage of the untreated controls incubated under the same conditions (100%).
On the technique in general: Tetrazolium dyes change colour on reduction, which living cells bring about.

In assay [3] the test system is human skin. In words: Diclofenac permeation through human skin in Franz diffusion cells with co-applied enhancer. The assay is classed as in vitro ADME. The conditions noted are these: for CDERMIS, diclofenac concentration in dermis / CEPIDERMIS, diclofenac concentration in epidermis: 1% enhancer co-applied with 3% DC in 60% PG, after 48 h permeation, mean ± SEM. As to the method:
as §1, §2, §3, §4

In assay [4] the test system is 3T3 mouse fibroblasts. As to the kind of experiment: Neutral red (NR) uptake cell viability assay, 3T3. It is filed as cell-based. Particulars: NIH3T3, 48-h incubation, read-out: IC50, 3T3 cells, NR assay.
Text: as §5, §6, §7
For toxicity studies, the stock-solutions of studied compounds were prepared in dimethyl sulfoxide (DMSO). These stock samples were diluted to the required concentration by the cell culture medium immediately before adding them onto the cells. The amount of DMSO applied to the cells was kept under its intrinsic measurable toxicity limit (below 1 vol.%). […]
Another approach used for the toxicity assessment was the neutral red (NR) uptake assay. […] The plates were shaken at rt for 30 min, and the optical density of the soluble NR was measured at λ = 540 nm using a Tecan Infinite 200 M plate reader.
as §8

Setting [5] is: 1% enhancer with 3% DC in 60% PG.

What is called IC50 is the concentration that inhibits the measured activity by half. On to `CCCCCCCCCCCCOC(=O)C1CCCN1C(C)=O` (centres unmarked) [Pro2, N-acetyl proline dodecyl ester], for which, in assay [1], the “CDERMIS, theophylline concentration in dermis” value was 0.37 ± 0.02 µg/mg; the “CEPIDERMIS, theophylline concentration in epidermis” value amounted to 1.04 ± 0.11 µg/mg; the “ER, enhancement ratio of theophylline flux (fold increase in flux over control)” value was 28. For the same molecule, in assay [2], the 50% inhibitory concentration (IC50) amounted to 92.4 ± 2.82 µM. For the same molecule, in assay [3], the “CDERMIS, diclofenac concentration in dermis” value is on record as 1.08 ± 0.09 µg/mg and the “CEPIDERMIS, diclofenac concentration in epidermis” value is 7.16 ± 0.79 µg/mg. In assay [4], the IC50 amounted to 84.09 ± 0.49 µM.
Consider `CCCCCCCCCCCCOC(=O)C1CCCN1C(=O)CC` (centres unmarked) [Pro3], for which, in assay [1], the “CDERMIS, theophylline concentration in dermis” value was 0.32 ± 0.03 µg/mg; the “CEPIDERMIS, theophylline concentration in epidermis” value is 1.11 ± 0.17 µg/mg; the “ER, enhancement ratio of theophylline flux (fold increase in flux over control)” value came out at 31. In assay [2], the IC50 came out at 84.4 ± 1.5 µM. In addition, in assay [3], the “CDERMIS, diclofenac concentration in dermis” value is given as 1.54 ± 0.28 µg/mg and the “CEPIDERMIS, diclofenac concentration in epidermis” value is listed as 11.18 ± 2.39 µg/mg. For the same molecule, the IC50 in assay [4] turned out to be 57.2 ± 2.58 µM.
Turning to `CCCCCCCCCCCCOC(=O)C1CCCN1C(=O)CCC` (centres unmarked) [Pro4], in assay [1], the “CDERMIS, theophylline concentration in dermis” value was determined as 0.25 ± 0.01 µg/mg; the “CEPIDERMIS, theophylline concentration in epidermis” value was determined as 0.83 ± 0.08 µg/mg; the “ER, enhancement ratio of theophylline flux (fold increase in flux over control)” value was 25. In addition, in assay [2], the IC50 was 63.9 ± 1.91 µM. Moreover, in assay [3], the “CDERMIS, diclofenac concentration in dermis” value is recorded as 1.71 ± 0.31 µg/mg and the “CEPIDERMIS, diclofenac concentration in epidermis” value was 12.70 ± 2.71 µg/mg. Also, in assay [3] (setting [5]), the “fold increase of DC retention in dermis over control” value is reported as “fourfold” and the “fold increase of DC retention in epidermis over control” value came to 3 fold. The IC50 in assay [4] was found to be 56.8 ± 2.45 µM.

The values above are taken from paper PMC9663686, “Proline, hydroxyproline, and pyrrolidone carboxylic acid derivatives as highly efficient but reversible transdermal permeation enhancers” (Scientific Reports, 2022).
